Experimental data published in US12599136B2, “Substituted isophthalic acid diamides and their use as herbicides” (Bayer Aktiengesellschaft, priority 2020, dated 2026).

Tests used:
Type in all cases: in vivo
Abutilon theophrasti [1] = test: Pre-emergence herbicidal action against ABUTH; conditions: visual score after 3 weeks vs untreated controls
Method in brief: (§1)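 Seeds sown in sandy loam, soil-covered; compound sprayed on soil surface pre-emergence. Application: WP/EC, 600–800 l/ha, 0.2% wetting agent. Readout: visual % damage at 3 weeks.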

Alopecurus myosuroides [2] = test: Pre-emergence herbicidal action against ALOMY; conditions: 80 g/ha; visual score after 3 weeks vs untreated controls
Method in brief: as §1

Amaranthus retroflexus [3] = test: Pre-emergence herbicidal action against AMARE; conditions: visual score after 3 weeks vs untreated controls
Method in brief: as §1

Avena fatua [4] = test: Pre-emergence herbicidal action against AVEFA; conditions: 80 g/ha; visual score after 3 weeks vs untreated controls
Method in brief: as §1

Echinochloa crus-galli [5] = test: Pre-emergence herbicidal action against ECHCG; conditions: 80 g/ha; visual score after 3 weeks vs untreated controls
Method in brief: as §1

Matricaria inodora [6] = test: Pre-emergence herbicidal action against MATIN; conditions: visual score after 3 weeks vs untreated controls
Method in brief: as §1

Pharbitis purpurea [7] = test: Pre-emergence herbicidal action against PHBPU; conditions: 80 g/ha; visual score after 3 weeks vs untreated controls
Description: Seeds of monocotyledonous and dicotyledonous weed plants and crop plants are laid out in sandy loam soil in wood-fiber pots and covered with soil. The compounds of the invention, formulated in the form of wettable powders (WP) or as emulsion concentrates (EC), are then applied to the surface of the covering soil in the form of an aqueous suspension or emulsion at a water application rate equivalent to 600 to 800 l/ha, with addition of 0.2% wetting agent. After the treatment, the pots are placed in a greenhouse and kept under good growth conditions for the trial plants. The damage to the test plants is scored visually after a test period of 3 weeks by comparison with untreated controls (herbicidal activity in percent (%): 100% activity=the plants have died, 0% activity=like control plants). […] The tables below illustrate, in an illustrative manner, the post-emergence herbicidal action of the compounds of the invention, the herbicidal activity being stated in percent.

Lolium rigidum = test: Pre-emergence herbicidal action against LOLRI; conditions: 80 g/ha
Method in brief: as §1

Polygonum convolvulus = test: Pre-emergence herbicidal action against POLCO; conditions: 80 g/ha
Method in brief: as §1

Setaria viridis [8] = test: Pre-emergence herbicidal action against SETVI; conditions: 80 g/ha
Method in brief: as §1

Veronica persica [9] = test: Pre-emergence herbicidal action against VERPE; conditions: 80 g/ha
Method in brief: as §1

Viola tricolor [10] = test: Pre-emergence herbicidal action against VIOTR
Method in brief: as §1

Abutilon theophrasti [11] = test: Post-emergence herbicidal action against ABUTH
Method in brief: (§2)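 Sandy loam, greenhouse; treatment 2–3 weeks after sowing, one-leaf stage. Aqueous suspension or emulsion from WP/EC sprayed on foliage (600–800 l/ha, 0.2% wetting agent). Readout: visual % action, ~3 weeks.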

Alopecurus myosuroides [12] = test: Post-emergence herbicidal action against ALOMY
Method in brief: as §2

Amaranthus retroflexus [13] = test: Post-emergence herbicidal action against AMARE; conditions: visual assessment about 3 weeks after treatment
Method in brief: as §2

Avena fatua [14] = test: Post-emergence herbicidal action against AVEFA; conditions: 20 g/ha, visual assessment about 3 weeks after treatment
Method in brief: as §2

Matricaria inodora [15] = test: Post-emergence herbicidal action against MATIN; conditions: visual assessment about 3 weeks after treatment
Method in brief: as §2

Pharbitis purpurea [16] = test: Post-emergence herbicidal action against PHBPU; conditions: visual assessment about 3 weeks after treatment
Method in brief: as §2

Digitaria sanguinalis = test: Post-emergence herbicidal action against DIGSA
Method in brief: as §2

Setaria viridis [17] = test: Post-emergence herbicidal action against SETVI; conditions: visual assessment about 3 weeks after treatment
Method in brief: as §2

Veronica persica [18] = test: Post-emergence herbicidal action against VERPE; conditions: 20 g/ha, visual assessment about 3 weeks after treatment
Method in brief: as §2

Viola tricolor [19] = test: Post-emergence herbicidal action against VIOTR
Method in brief: as §2

Echinochloa crus-galli [20] = test: Post-emergence herbicidal action against ECHCG; conditions: 20 g/ha, visual assessment about 3 weeks after treatment
Method in brief: as §2

Structure (SMILES) | Pre-emergence action against ABUTH (Abutilon theophrasti [1]; 20 g/ha) | Pre-emergence action against ABUTH (Abutilon theophrasti [1]; 80 g/ha) | Pre-emergence action against ALOMY (Alopecurus myosuroides [2]) | Pre-emergence action against AMARE (Amaranthus retroflexus [3]; 20 g/ha) | Pre-emergence action against AMARE (Amaranthus retroflexus [3]; 80 g/ha) | Pre-emergence action against AVEFA (Avena fatua [4]) | Pre-emergence action against ECHCG (Echinochloa crus-galli [5]) | Pre-emergence action against MATIN (Matricaria inodora [6]; 20 g/ha) | Pre-emergence action against MATIN (Matricaria inodora [6]; 80 g/ha) | Pre-emergence action against PHBPU (Pharbitis purpurea [7]) | Pre-emergence action against LOLRI (Lolium rigidum) | Pre-emergence action against SETVI (Setaria viridis [8]) | Pre-emergence action against VIOTR (Viola tricolor [10]; 80 g/ha) | Post-emergence action against ABUTH (Abutilon theophrasti [11]; 5 g/ha) | Post-emergence action against ABUTH (Abutilon theophrasti [11]; 20 g/ha) | Post-emergence action against ALOMY (Alopecurus myosuroides [12]; 5 g/ha) | Post-emergence action against ALOMY (Alopecurus myosuroides [12]; 20 g/ha) | Post-emergence action against AMARE in % (Amaranthus retroflexus [13]; 5 g/ha) | Post-emergence action against AMARE in % (Amaranthus retroflexus [13]; 20 g/ha) | Post-emergence action against MATIN in % (Matricaria inodora [15]; 20 g/ha) | other results
CCN(CC)C(=O)c1c(C(F)F)ccc(C(=O)Nc2nnnn2C)c1Cl [Example 1-166] | 100% | 100% | 90% | 100% | 100% | 90% | 100% | 90% | 90% | 90% | 80% | 100% | 100% | 80% | 90% | 80% | 80% | 100% | 100% | 90% | Pre-emergence action against POLCO (Polygonum convolvulus): 80%; Pre-emergence action against VERPE (Veronica persica [9]): 100%; Post-emergence action against AVEFA in % (Avena fatua [14]): 80%; Post-emergence action against MATIN in % (Matricaria inodora [15]; 5 g/ha): 80%; Post-emergence action against PHBPU in % (Pharbitis purpurea [16]; 5 g/ha): 90%; Post-emergence action against PHBPU in % (Pharbitis purpurea [16]; 20 g/ha): 90%; Post-emergence action against DIGSA in % (Digitaria sanguinalis; 5 g/ha): 90%; Post-emergence action against DIGSA in % (Digitaria sanguinalis; 20 g/ha): 90%; Post-emergence action against SETVI in % (Setaria viridis [17]; 5 g/ha): 80%; Post-emergence action against SETVI in % (Setaria viridis [17]; 20 g/ha): 100%; Post-emergence action against VERPE in % (Veronica persica [18]): 80%; Post-emergence action against VIOTR in % (Viola tricolor [19]; 20 g/ha): 80%
CCN(C(=O)c1c(C(F)F)ccc(C(=O)Nc2nnnn2C)c1Cl)C1CC1 [Example 1-167] | 100% | 100% | 100% | 100% | 100% | 90% | 90% | 80% | 100% | 80% | 90% | 100% | 100% | 90% | 90% | 90% | 90% | 100% | 100% | 80% | Pre-emergence action against VIOTR (Viola tricolor [10]; 20 g/ha): 90%; Post-emergence action against ECHCG in % (Echinochloa crus-galli [20]): 80%; Post-emergence action against SETVI in % (Setaria viridis [17]; 20 g/ha): 100%; Post-emergence action against VERPE in % (Veronica persica [18]): 90%; Post-emergence action against VIOTR in % (Viola tricolor [19]; 5 g/ha): 80%; Post-emergence action against VIOTR in % (Viola tricolor [19]; 20 g/ha): 90%
